# Marks after values point to notes of the source that are not given here.
# Columns and labels:
# [1] = tested on: interleukin-1β (IL-1β) secretion; assay: IL-1β secretion induced by PMA in keratinocytes (ELISA); assay type: cell-based, human
# Method: (§1) Normal human keratinocytes were preincubated for 24 hours with Schisandra peptides at concentrations of 0.005% and 0.05% or with 10^-7 M dexamethasone (anti-inflammatory reference molecule).
# (§2) Inflammation was then induced by treatment with 10 μg/ml PMA for 24 hours, always in the presence of Schisandra peptides or dexamethasone.
# (§3) At the end of incubation, the quantities of interleukin-1β (IL-1β), interleukin-8 (IL-8) and interleukin-6 (IL-6) present in the culture supernatants were measured by ELISA.
# (§4) In parallel, the number of biologically active cells is determined by a neutral red test. The quantity of cytokine assayed for each condition is reduced to the number of living cells by dividing by the OD540 value obtained at the end of the neutral red test.
# [2] = tested on: interleukin-6 (IL-6) secretion; assay: IL-6 secretion induced by PMA in keratinocytes (ELISA); assay type: cell-based, human; conditions: for IL-6: keratinocytes
# Method: as §1, §2, §3, §4
# [3] = tested on: interleukin-8 (IL-8) secretion; assay: IL-8 secretion induced by PMA in keratinocytes (ELISA); assay type: cell-based, human
# Method: as §1, §2, §3, §4
# [4] = tested on: VEGF secretion; assay: VEGF protein release induced by PMA in keratinocytes (ELISA); assay type: cell-based, human
# Method: Normal human keratinocytes were preincubated for 24 hours with Schisandra peptides at concentrations of 0.005%, 0.05% and 0.1% or with 10^-7 M dexamethasone (anti-inflammatory reference molecule).
# as §2
# At the end of incubation, the quantity of VEGF present in the culture supernatants was measured by ELISA.
# as §4
# The significance of the results was verified by a single-factor analysis of variance followed by a Tukey's test (GraphPad Prism version 5.02 software, GraphPad Software, San Diego, Calif., USA).
# [5] = tested on: endothelin production; assay: Endothelin production by dermal microvascular endothelial cells (ELISA); assay type: cell-based, human; conditions: 6 hours, 16.7 nM insulin
# Method: Endothelin is a neuropeptide with powerful vasoconstrictive activity. It is secreted by endothelial and epithelial cells (keratinocytes), fibroblasts, adipocytes and macrophages. The effect of Schisandra peptides on endothelin production by endothelial cells was studied.
# Normal adult human dermal microvascular endothelial cells cultivated in a monolayer were incubated for 6 hours in the absence (control) or the presence of 0.05% and 0.1% Schisandra peptides or 16.7 nM insulin (reference activator).
# At the end of the incubation period, secreted endothelin was quantified by ELISA. In parallel, the proteins contained in the cellular lysates were quantified by the Bradford method.
# The quantity of endothelin assayed was thus normalized with the quantity of total proteins, and the results were then expressed as the ratio of endothelin (ng) to total protein (μg) in the layer of cells.
# The statistical significance of the results was evaluated by a single-factor analysis of variance followed by a Holm-Sidak test.
# [6] = tested on: Normal human dermal microvascular endothelial cells; assay: Endothelial cell proliferation in the absence or presence of VEGF (intracellular phosphatase activity); assay type: cell-based; conditions: 10 ng/ml VEGF
# Method: Normal human dermal microvascular endothelial cells were incubated for 24 or 48 hours in the absence (control) or presence of Schisandra peptides at concentrations of 0.05% and 0.1% and in the presence and absence of 10 ng/ml vascular endothelial growth factor (VEGF), the reference activator.
# At the end of incubation, cell viability was evaluated by a spectrophotometric assay of intracellular phosphatase activity.
# Statistical significance was evaluated by a single-factor analysis of variance followed by a Holm-Sidak test.
# [7] = tested on: kallikrein 5 (KLK5) gene expression; assay: KLK5 gene expression induced by calcitriol in keratinocytes (real-time RT-PCR); assay type: cell-based, human; conditions: NHEK, 24 hours
# Method: (§5) In order to evaluate the potential activity of Schisandra peptides in the inflammatory phase of rosacea, we studied the effect of this complex of active agents on kallikrein 5 (KLK5) and cathelicidin (LL37) gene expression induced by a vitamin D analogue (calcitriol) in keratinocytes.
# (§6) Normal human epidermal keratinocytes (NHEK) were cultivated in culture medium supplemented with Ca++ in order to bring them to a state of differentiation.
# (§7) The keratinocytes were treated for 24 hours with 0.05% (w/v) Schisandra peptides in the presence or absence of 10^-7 M calcitriol (vitamin D analogue).
# (§8) At the end of the treatment, the culture supernatants were eliminated and total RNA extracted using an extraction kit (RNeasy Mini Kit, Qiagen). Total RNA were then assayed in chips using the Experion™ system and the Experion RNA StdSens kit (Bio-Rad) and then reverse-transcribed into cDNA using the iScript cDNA Synthesis kit (Bio-Rad).
# (§9) The neo-synthesized cDNA relating to the genes of interest (KLK5 and LL37) or to the reference genes were amplified selectively by real-time PCR on an iQ5 system (Bio-Rad) using SybrGreen technology (iQ SybrGreen kit, Bio-Rad).
# (§10) The real-time RT-PCR method enables the relative quantification of the expression level of a gene of interest in relation to that of a reference gene in response to a given treatment.
# (§11) The quantitative analysis of the results is based on the collection of threshold cycles.
# (§12) The threshold cycle is […] correlated with the initial number of copies of target DNA.
# (§13) ΔCt is thus calculated as follows: ΔCt=Cttarget gene−Ctreference gene
# (§14) In a second step, the variation, as a function of the treatment and the number of copies of the gene of interest, was determined. ΔΔCt is thus calculated as follows: ΔΔCt=ΔCtcontrol−ΔCttreated
# (§15) Lastly, relative quantity (RQ) is calculated: RQ=(1+E)ΔΔCt.
# (§16) E (efficiency) is considered equal to 1, and thus: RQ=2ΔΔCt
# (§17) The significance of the results was verified for the ΔCt values by a single-factor analysis of variance followed by a Tukey's test (GraphPad Prism version 5.02 software, GraphPad Software, San Diego, Calif., USA).
# [8] = tested on: cathelicidin (LL37) gene expression; assay: LL37 gene expression induced by calcitriol in keratinocytes (real-time RT-PCR); assay type: cell-based, human; conditions: NHEK, 24 hours
# Method: as §5, §6, §7, §8, §9, §10, §11, §12, §13, §14, §15, §16, §17
# [9] = 10−7 M dexamethasone 24 h preincubation + PMA 24 h
# [10] = 10^-7 M calcitriol alone (stimulated control)
# [11] = 10^-7 M calcitriol alone (stimulated control), control cells = 1
# [12] = 10 μg/ml PMA 24 hours alone (stimulated control)
molecule,measurement,setting,value
C[C@@H]1C[C@H]2[C@@H]3CCC4=CC(=O)C=C[C@]4(C)[C@@]3(F)[C@@H](O)C[C@]2(C)[C@@]1(O)C(=O)CO [dexamethasone],IL-1β,[1]; [9],0.037 ± 0.011 ODELISA-ODneutral red
same,"IL-6 release, change vs. stimulated control (PMA)",[2]; 10−7 M dexamethasone,−56%***
same,IL-6,[2]; [9],0.043 ± 0.012 ODELISA/ODneutral red
same,IL-8,[3]; [9],0.973 ± 0.213 pg/ml/ODneutral red
same,VEGF,[4]; 10^−7 M dexamethasone 24 h preincubation + PMA 24 h,1789.338 ± 489.677 pg/ml/ODneutral red
insulin: reference activator of endothelin production,"Endothelin production, change vs. control cells",[5],+30%
same,Endothelin,[5]; endothelial cells,1.72 ± 0.23 ng/μg of proteins
VEGF,"Endothelial cell growth, stimulation in relation to control cells",[6]; 24 hours,+41.4%
same,"Endothelial cell growth, stimulation in relation to control cells",[6]; 48 hours,+96.3%
C=C1/C(=C\C=C2/CCC[C@]3(C)[C@@H]([C@H](C)CCCC(C)(C)O)CC[C@@H]23)C[C@@H](O)C[C@@H]1O [calcitriol],Stimulation of kallikrein 5 gene expression vs. control cells,[7]; 10^-7 M calcitriol,+149%
same,Mean ΔCt (CtKLK5 − CtGAPDH),[7]; [10],2.46
same,ΔΔCt (KLK5),[7]; [10],1.32
same,KLK5 expression (RQ),[7]; [11],2.49$$
same,Stimulation of LL37 gene expression vs. control cells,[8]; 10^-7 M calcitriol,+795%
same,Mean ΔCt (CtLL37 − CtGAPDH),[8]; [10],11.01
same,ΔΔCt (LL37),[8]; [10],3.16
same,LL37 expression (RQ),[8]; [11],8.95$$$
CCCCCCCCCCCCCC(=O)O[C@@H]1[C@@H](C)[C@@]2(O)[C@@H](C=C(CO)C[C@]3(O)C(=O)C(C)=C[C@@H]23)[C@@H]2C(C)(C)[C@]12OC(C)=O [PMA],IL-1β,[1]; [12],0.106 ± 0.008 ODELISA-ODneutral red
same,IL-6,[2]; [12],0.098 ± 0.002 ODELISA/ODneutral red
same,IL-8,[3]; [12],2.056 ± 0.166 pg/ml/ODneutral red
same,VEGF,[4]; [12],3333.861 ± 111.766 pg/ml/ODneutral red

# From patent US8586107B2, “Schisandra sphenanthera fruit extract and cosmetic, dermatological, and nutraceutical compositions comprising same” (Laboratoires Expanscience, priority 2009, dated 2013)
